According to patent US9670199B2, “Ergoline derivatives as dopamine receptor modulators” (REGENTS OF THE UNIVERSITY OF MINNESOTA, priority 2012, dated 2017):
One block for each compound: values may come before it.

What was measured:
[1] = molecular target: T1, 5-HT2B receptor (Homo sapiens, UniProt P41595); assay: 5-HT2B competitive binding assay against 125I-radiolabeled 2,5-dimethoxy-4-iodoamphetamine (agonist radioligand); settings: result in words
Excerpt: (§1) The biological activity of representative compounds of the invention can be determined using a number of assays that are known.

[2] = molecular target: T1, 5-HT2B receptor; assay: 5-HT2B functional assay (agonism), HTRF quantitation of IP1 accumulation; type: cell-based; settings: for 5-HT2B agonism (type of agonist): result in words
Excerpt: as §1

[3] = molecular target: T2, D4 receptor (Homo sapiens, UniProt P21917); assay: D4 functional assay; type: cell-based; settings: result in words
T2 sequence (P21917 1-419): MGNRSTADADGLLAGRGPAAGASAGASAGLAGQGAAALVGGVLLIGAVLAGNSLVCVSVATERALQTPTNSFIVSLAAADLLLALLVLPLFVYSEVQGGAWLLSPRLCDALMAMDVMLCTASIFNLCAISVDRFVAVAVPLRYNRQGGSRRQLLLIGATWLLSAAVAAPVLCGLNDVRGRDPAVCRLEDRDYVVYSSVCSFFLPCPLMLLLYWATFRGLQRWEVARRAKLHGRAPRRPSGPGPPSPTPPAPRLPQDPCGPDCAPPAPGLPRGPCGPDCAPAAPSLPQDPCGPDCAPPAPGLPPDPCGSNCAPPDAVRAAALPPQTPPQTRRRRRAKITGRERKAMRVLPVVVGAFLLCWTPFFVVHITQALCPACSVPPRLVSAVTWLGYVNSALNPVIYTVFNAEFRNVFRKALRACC
Description: (§2) The biological activity of representative compounds of the invention can be determined using a number of assays that are known. For example, 5-HT2B functional assays were performed following the procedure reported by Porter, R. H. P., et al., Br. J. Pharmacol. 1999, 128, 13-20. 5-HT2B binding assays were performed following the procedure reported by Choi, D.-S., et al., FEBS Lett. 1994, 352, 393-399, using an agonist radioligand. D2 and D4 functional assays were performed following the method reported by Jensen, N. H., et al., Neuropsychopharmacology 2007, 33, 2303-2312.

[4] = molecular target: T1, 5-HT2B receptor; assay: 5-HT2B functional assay, antagonism against serotonin; type: cell-based; settings: result in words
Description: as §2

[5] = molecular target: D2 receptor (Homo sapiens, UniProt P14416); assay: D2 functional assay; type: cell-based
Sequence of D2 receptor (P14416 whole entry): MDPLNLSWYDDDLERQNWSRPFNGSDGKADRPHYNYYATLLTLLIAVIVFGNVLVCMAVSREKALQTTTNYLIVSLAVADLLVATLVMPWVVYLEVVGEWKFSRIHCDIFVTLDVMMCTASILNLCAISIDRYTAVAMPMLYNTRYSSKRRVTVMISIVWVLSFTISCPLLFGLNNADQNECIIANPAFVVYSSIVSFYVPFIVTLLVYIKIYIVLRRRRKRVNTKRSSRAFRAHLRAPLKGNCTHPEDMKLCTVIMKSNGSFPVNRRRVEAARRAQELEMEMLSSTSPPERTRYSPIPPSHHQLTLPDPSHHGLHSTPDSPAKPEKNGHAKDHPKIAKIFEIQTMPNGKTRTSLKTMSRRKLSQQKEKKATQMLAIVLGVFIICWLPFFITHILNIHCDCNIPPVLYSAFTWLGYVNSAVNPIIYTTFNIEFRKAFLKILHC
Description: as §2

[6] = system: male rats; assay: Effects on sexual function in rats; type: in vivo, rat; settings: gavage
Excerpt: Effects of Cabergoline on Sexual Function in Rats. […] This can be tested by seeing whether it can potentiate the induction of a conditioned partner preference. For example, a study could be performed where rats take the drug immediately before their first sexual experience with an almond scented female and 4 days later the cabergoline rats are put in an open field with two females, one scented and the other unscented. Males given their first, e.g., 10, copulatory experiences with scented females would show a significant conditioned ejaculatory preference to ejaculate preferentially with the scented female. […] Cabergoline could also be similarly tested on males that have had their ejaculations reduced to near zero by chronic administration of the SSRI fluoxetine. SSRIs are known to induce anorgasmia, and currently there is no treatment for this side effect.

T1 sequence (P41595 whole entry): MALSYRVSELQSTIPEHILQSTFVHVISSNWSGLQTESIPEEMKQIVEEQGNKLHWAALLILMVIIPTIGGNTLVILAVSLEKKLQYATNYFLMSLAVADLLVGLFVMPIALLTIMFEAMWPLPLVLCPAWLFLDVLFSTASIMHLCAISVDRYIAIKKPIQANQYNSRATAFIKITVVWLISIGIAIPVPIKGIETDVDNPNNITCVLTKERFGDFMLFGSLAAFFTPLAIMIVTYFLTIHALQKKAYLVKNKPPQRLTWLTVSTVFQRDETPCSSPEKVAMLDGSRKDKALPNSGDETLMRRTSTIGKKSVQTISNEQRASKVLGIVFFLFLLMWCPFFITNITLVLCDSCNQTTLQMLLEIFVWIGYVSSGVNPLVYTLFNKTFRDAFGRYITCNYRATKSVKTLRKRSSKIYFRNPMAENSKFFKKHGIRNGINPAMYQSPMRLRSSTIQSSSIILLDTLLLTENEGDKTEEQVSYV

SMILES: C=CCN1C[C@H](C(=O)N(CCCN2CCOCC2)C(=O)NCC)C[C@@H]2c3cccc4[nH]cc(c34)C[C@H]21 [Compound 1, (5R,8R,10R)-6-Allyl-N-[3-(morpholino)propyl]-N-[(ethylamino)carbonyl]-ergoline-8-carboxamide]
activity/potency at 5-HT2B receptor in radioactive binding assay, compared with cabergoline [1]: not significantly less active
5-HT2B agonism (type of agonist) [2]: full agonists

SMILES: CCNC(=O)N(CCCN(C)C)C(=O)[C@@H]1C[C@@H]2c3cccc4c3c(cn4C)C[C@H]2N(C)C1 [Compound 9, 1,6-Dimethylcabergoline]
5-HT2B agonism (type of agonist) [2]: no agonism
D4 agonism (type of agonist) [3]: full D4 agonist
5-HT2B antagonism against serotonin [4]: potent antagonists
EC50 [5]: 1.4 nM
Emax [5]: 50%
D2 agonism (type of agonist) ([5]; result in words): potent but partial D2 agonist

SMILES: CN(C)CCCNC(=O)[C@@H]1C[C@@H]2c3cccc4c3c(cn4C)C[C@H]2N(C)C1 [Compound 14, (5R,8R,10R)-1,6-Dimethyl-N-[3-(dimethylamino)propyl]ergoline-8-carboxamide]
Emax ([2]; read-out: 5-HT2B Emax): < 12%
5-HT2B agonism (type of agonist) [2]: minimal to no agonism
5-HT2B antagonism against serotonin [4]: potent antagonists

SMILES: COC(OC)[C@@H]1C[C@@H]2c3cccc4c3c(cn4C)C[C@H]2N(C)C1 [Compound 15]
5-HT2B agonism (type of agonist) [2]: no agonism
5-HT2B antagonism against serotonin [4]: potent antagonists

5-HT2B agonism (type of agonist) [2]: full agonists
SMILES: C=CCN1C[C@H](C(=O)N(CCCN(C)C)C(=O)NCC)C[C@@H]2c3cccc4[nH]cc(c34)C[C@H]21 [cabergoline]
anticipatory level changes prior to copulation (anticipatory desire) [6]: increased
ejaculation latencies vs controls [6]: shorter ejaculation latencies
intromissions before ejaculation vs controls [6]: more intromissions
number of ejaculations vs controls [6]: significantly more times
